11 compounds from US12691110B2 (Massachusetts Eye and Ear Infirmary, priority 2022, dated 2026) can be followed below.

The test system of one assay is C-PVR cells. As to the kind of experiment: CyQuant cell proliferation assay in human patient derived primary cultures of PVR. In kind it is cell-based. On the procedure:
Twelve candidate drugs were tested at 2 concentrations at 72 hours for their effects on proliferation and cytotoxicity in C-PVR cells. […] Each anti-proliferative drug was tested at 2 concentrations determined by using the IC50 of each drug. The data was expressed as percent cell inhibition.
The cells were washed and the CyQuant Direct nucleic acid stain was added and incubated at 37 degrees in the incubator. Fluorescence read outs were measured at wavelengths as instructed in the protocol.

The next assay concerns human PVR explants. The experiment in a line: Ex vivo human PVR explant outgrowth and sprouting model. In kind it is cell-based. Particulars: for total branch length of outgrowths: vehicle 167 mm; for sprouting distance from the explant (in words): 3-10 days.
The mark [1] stands for this setting: Homo sapiens, 72 hours, C-PVR cells.
Setting [2] is: Homo sapiens, 5 μM, 72 hours, C-PVR cells.

Structures are written as SMILES.

As to `COc1cccc2c1C(=O)c1c(O)c3c(c(O)c1C2=O)C[C@@](O)(C(C)=O)C[C@@H]3O[C@H]1C[C@H](N)[C@H](O)[C@H](C)O1` [Daunorubicin], the reduction in proliferation stood at 50% with C-PVR cells (15 nM, 72 hours, C-PVR cells) and 53% with C-PVR cells (30 nM, 72 hours, C-PVR cells).

In the case of `O=C1CN=C(c2ccc[nH]2)c2cc(Cl)ccc2N1` [RUNX1 inhibitor, Ro5-3335], the “inhibition of growth of C-PVR cells (in words)” value in the assay with C-PVR cells (150 μM alone, 48 and 72 hours) is recorded as “efficacious at inhibiting growth of C-PVR cells”.

With `CC[C@@]1(O)C(=O)OCc2c1cc1n(c2=O)Cc2cc3c(CN(C)C)c(O)ccc3nc2-1` [Topotecan, topotecan], the decrease in proliferation in the assay with C-PVR cells (40 nM, 72 hours, C-PVR cells) worked out at 54%; with C-PVR cells (80 nM, 72 hours, C-PVR cells) it was 53%. Moreover, the “inhibition of proliferation of C-PVR cells (in words)” value with C-PVR cells (concentrations of 40 nM and 80 nM, FIG. 1B) is given as “effectively inhibited the proliferation of C-PVR cells”. The “total branch length of outgrowths” value with human PVR explants (40 nM (so in the source)) is 34 mm. For the same compound, the “sprouting distance from the explant (in words)” value in the assay on human PVR explants (80 nM alone) is “statistically significant reduction in sprouting distance”.

Take `Cn1c(CCCC(=O)O)nc2cc(N(CCCl)CCCl)ccc21` [bendamustine]: the inhibition at 1 µM with C-PVR cells (setting [1]) is 25%. In the assay on C-PVR cells (setting [2]), this compound gave an inhibition at 5 µM of 20%.

As for `COC(=O)N[C@H](C(=O)N1CCC[C@H]1c1ncc(-c2ccc(-c3ccc(-c4cnc([C@@H]5CCCN5C(=O)[C@@H](NC(=O)OC)C(C)C)[nH]4)cc3)cc2)[nH]1)C(C)C` [daclatsvir], the “inhibition of cell proliferation” value in the assay with C-PVR cells (5 μM, 72 hours, C-PVR cells) turned out to be 16%.

For `Nc1cccc2c1CN(C1CCC(=O)NC1=O)C2=O` (stereo not shown) [lenalidomide], the inhibition of proliferation in the assay on C-PVR cells (concentration not given, 72 hours, C-PVR cells) is 24%.

The compound `CN1CCN(c2c(F)cc3c(=O)c(C(=O)O)cn4c3c2OCN4C)CC1` [marbofloxacin] gave an inhibition at 5 µM with C-PVR cells (setting [2]) of 30%.

With `N[C@@H](Cc1ccc(N(CCCl)CCCl)cc1)C(=O)O` [melphalan, 4-[bis(2-chloroethyl)amino]-L-phenylalanine], in the assay with C-PVR cells (60 μM, 72 hours, C-PVR cells), the “reduction of cell proliferation” value is recorded as 83%. Besides, the inhibition at 30 µM in the assay with C-PVR cells (Homo sapiens, 30 μM, 72 hours, C-PVR cells) came to 74%. Further, the “inhibition of proliferation of C-PVR cells (in words)” value in the assay with C-PVR cells (concentrations of 30 nM and 60 nM (so in the source), FIG. 1A) is recorded as “effectively inhibited the proliferation of C-PVR cells”. The “sprouting distance from the explant (in words)” value with human PVR explants (30 μM alone) is recorded as “statistically significant reduction in sprouting distance”. Also, the “total branch length of outgrowths” value in the assay on human PVR explants (30 μM) stood at 27.5 mm.

In the assay on C-PVR cells (setting [2]), `Oc1ccc(C=Cc2cc(O)cc(O)c2)cc1` [resveratrol] yielded an inhibition at 5 µM of 28%.

Regarding `CC(C)[C@H](O)C(=O)N[C@@H](C)C(=O)N[C@@H]1C(=O)N(C)CCc2ccccc21` [semagacestat], the inhibition at 1 µM in the assay on C-PVR cells (setting [1]) was 28%. This compound registered an inhibition at 5 µM in the assay with C-PVR cells (setting [2]) of 30%.

The compound `Cc1cn([C@H]2C=C[C@@H](CO)O2)c(=O)[nH]c1=O` [stavudine] yielded an inhibition at 5 µM in the assay on C-PVR cells (setting [2]) of 19%.
